Results on six molecules are retold here after the NIST ThermoML archive (doi:10.1016/j.jct.2016.10.042).

± gives the expanded uncertainty stated by the source.

The nature of data set [1]: xn = mol fraction of the nth substance listed. The conditions noted are these: 101 kPa, Liquid, Pycnometric method, x1 = 1.
The conditions of data set [2]: 101 kPa, Liquid, Pycnometric method.

Turning to `C1CCOC1` [tetrahydrofuran] + C=CC(=O)OCCCC, the mass density came out at 887.01 ± 1 kg/m3 in data set [1] (293.15 K); 882.05 ± 1 kg/m3 in data set [1] (298.15 K); 877.1 ± 1 kg/m3 in data set [1] (303.15 K); 872.14 ± 1 kg/m3 in data set [1] (308.15 K); 867.19 ± 1 kg/m3 in data set [1] (313.15 K); 862.23 ± 1 kg/m3 in data set [1] (318.15 K).

With `C1CCOC1` [tetrahydrofuran] + C=CC(=O)OCC, the mass density is 887.01 ± 1 kg/m3 in data set [1] (293.15 K); 882.05 ± 1 kg/m3 in data set [1] (298.15 K); 877.1 ± 1 kg/m3 in data set [1] (303.15 K); 872.14 ± 1 kg/m3 in data set [1] (308.15 K); 867.19 ± 1 kg/m3 in data set [1] (313.15 K); 862.23 ± 1 kg/m3 in data set [1] (318.15 K).

On to `C1CCOC1` [tetrahydrofuran] + C=CC(=O)OC, for which the mass density in data set [1] (293.15 K) was determined as 887.01 ± 1 kg/m3; in data set [1] (298.15 K), 882.05 ± 1 kg/m3; in data set [1] (303.15 K), 877.1 ± 1 kg/m3; in data set [1] (308.15 K), 872.14 ± 1 kg/m3; in data set [1] (313.15 K), 867.19 ± 1 kg/m3; in data set [1] (318.15 K), 862.23 ± 1 kg/m3.

For the molecule `C1CCOC1` [tetrahydrofuran], the mass density in data set [2] (293.15 K) turned out to be 887.01 ± 1 kg/m3; in data set [2] (298.15 K), 882.05 ± 1 kg/m3; in data set [2] (303.15 K) it was 877.1 ± 1 kg/m3; in data set [2] (308.15 K), 872.14 ± 1 kg/m3; in data set [2] (313.15 K) it was 867.19 ± 1 kg/m3; in data set [2] (318.15 K), 862.23 ± 1 kg/m3.

Take `C1CCOC1` [tetrahydrofuran] + C=CC(=O)OC(C)(C)C: the mass density is recorded as 887.01 ± 1 kg/m3 in data set [1] (293.15 K); 882.05 ± 1 kg/m3 in data set [1] (298.15 K); 877.1 ± 1 kg/m3 in data set [1] (303.15 K); 872.14 ± 1 kg/m3 in data set [1] (308.15 K); 867.19 ± 1 kg/m3 in data set [1] (313.15 K); 862.23 ± 1 kg/m3 in data set [1] (318.15 K).

With `C=CC(=O)OC(C)(C)C` [tert-butyl acrylate], the mass density in data set [2] (293.15 K) is 884.13 ± 1 kg/m3; in data set [2] (298.15 K), 879.66 ± 1 kg/m3; in data set [2] (303.15 K) it was 875.2 ± 1 kg/m3; in data set [2] (308.15 K), 870.74 ± 1 kg/m3; in data set [2] (313.15 K) it was 866.28 ± 1 kg/m3; in data set [2] (318.15 K), 861.82 ± 1 kg/m3.
